From patent US20080318943A1, “Compounds and Uses Thereof - 848” (ASTRAZENECA AB, priority 2007, published 2008)

Key:
[1] = biological target: T1, GABAA2 receptors (α2, β3, γ2 receptor subunits transfected into Sf9 cells) (Homo sapiens, UniProt P18507+P47869); experiment: GABAA2 Binding Method ([3H]-Flunitrazepam displacement); details: [3H]-Flunitrazepam ~2 nM, α2β3γ2 Sf9 membranes, 1 hr at 4° C.
T1 construct: host or cells: Sf9 cells (membranes)
Protocol: In some embodiments, the binding test is directed to a subtype of GABAA receptors, such as GABAA1 receptors (i.e., those containing the α1 subunit), GABAA2 receptors (i.e., those containing the α2 subunit), GABAA3 receptors (i.e., those containing the α3 subunit) and GABAA5 receptors (i.e., those containing the α5 subunit).
[^3H]-Flunitrazepam (Cat #NET567): Prepare 10× stock=20 nM, [F} in assay=˜2 nM
1. […] Add 5 ul of 30 uM flumazenil to wells 12 D-E for 50% control wells.
5. Add 25 μl [^3H]-Flunitrazepam (Automation Program 6). Incubate for 1 hr at 4° C.
6. Collect membranes on a cell harvester onto GF/B filter plates (pre-wet with dH2O and wash 5×400 μl/well, with cold assay buffer. (First 3 washes are considered hot; last two are cold.)
Data is analyzed by calculating percent of control, IC50, and Ki in an XLfit template. The following formula is used in the templates: […]

[2] = biological target: T2, GABAA receptor α1β2γ2 (Homo sapiens, UniProt P14867+P18507); experiment: Two-electrode voltage-clamp potentiation of GABA EC10 current in Xenopus oocytes, GABAA1; format: cell-based; details: percentage potentiation of GABA EC10 current divided by that of diazepam
T2 construct: expressed in transfected cells; host or cells: Xenopus laevis oocytes injected with cRNA
T2 sequence (P14867 28-456): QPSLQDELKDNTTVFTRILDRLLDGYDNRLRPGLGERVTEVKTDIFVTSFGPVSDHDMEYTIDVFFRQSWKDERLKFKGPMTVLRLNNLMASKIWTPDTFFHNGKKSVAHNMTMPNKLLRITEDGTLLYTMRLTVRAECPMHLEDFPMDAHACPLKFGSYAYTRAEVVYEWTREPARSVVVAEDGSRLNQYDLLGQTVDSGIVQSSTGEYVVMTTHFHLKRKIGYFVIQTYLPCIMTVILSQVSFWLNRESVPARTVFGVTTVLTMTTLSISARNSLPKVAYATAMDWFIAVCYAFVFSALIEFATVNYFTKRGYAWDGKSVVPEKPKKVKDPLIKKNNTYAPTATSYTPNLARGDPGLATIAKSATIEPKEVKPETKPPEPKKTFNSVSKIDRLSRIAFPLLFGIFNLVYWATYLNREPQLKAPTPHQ
T2 sequence (P47870 25-512 partner limits assumed): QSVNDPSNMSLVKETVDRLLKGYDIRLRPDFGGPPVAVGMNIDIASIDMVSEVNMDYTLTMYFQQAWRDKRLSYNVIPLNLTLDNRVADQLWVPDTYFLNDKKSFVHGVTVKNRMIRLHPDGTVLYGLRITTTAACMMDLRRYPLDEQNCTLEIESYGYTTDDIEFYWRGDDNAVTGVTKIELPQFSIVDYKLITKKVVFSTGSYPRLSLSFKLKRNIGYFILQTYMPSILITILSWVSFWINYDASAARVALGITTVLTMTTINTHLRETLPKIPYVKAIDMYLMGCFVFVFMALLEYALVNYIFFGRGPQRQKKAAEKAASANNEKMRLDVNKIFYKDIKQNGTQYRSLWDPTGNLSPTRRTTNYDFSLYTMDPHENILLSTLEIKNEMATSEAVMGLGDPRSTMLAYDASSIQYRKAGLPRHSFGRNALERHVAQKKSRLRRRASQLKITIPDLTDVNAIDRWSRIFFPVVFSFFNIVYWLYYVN
T2 sequence (P18507 40-475): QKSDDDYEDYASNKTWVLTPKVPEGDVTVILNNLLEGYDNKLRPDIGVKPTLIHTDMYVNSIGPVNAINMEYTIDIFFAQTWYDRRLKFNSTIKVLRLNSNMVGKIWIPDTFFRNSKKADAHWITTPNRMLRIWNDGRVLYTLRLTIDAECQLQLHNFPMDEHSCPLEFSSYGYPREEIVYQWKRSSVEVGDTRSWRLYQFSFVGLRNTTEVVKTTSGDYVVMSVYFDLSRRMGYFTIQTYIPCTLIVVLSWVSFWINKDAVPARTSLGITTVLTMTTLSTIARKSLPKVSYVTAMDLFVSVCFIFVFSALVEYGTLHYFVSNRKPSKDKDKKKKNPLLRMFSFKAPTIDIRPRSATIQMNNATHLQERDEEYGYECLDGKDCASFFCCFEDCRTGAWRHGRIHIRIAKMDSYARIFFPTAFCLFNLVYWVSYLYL
Protocol: GABAA receptors were heterologously expressed in Xenopus oocytes by injecting cRNA corresponding to human α1, α2, α3, α5, β2, P3 and γ2 subunits of the GABAA receptor genes. The specific subunit combinations (subtypes) were as follows: α1β2γ2, α2β3γ2, α3β3γ2, and α5β3γ2. The EC10 of GABA is approximated for each cell. Stability of GABA-mediated (EC10) current is established. Modulatory effect of test compound is determined and compared across subtypes. […] Thus, the assay can characterize modulatory effects and determine subtype selectivity of test compounds on major subtypes of GABAA receptors.
Xenopus laevis frogs (Xenopus I, Kalamazoo, Mich.) were anesthetized using 0.15% tricaine. Surgically removed ovarian lobes were teased out in OR2 solution (82 NaCl, 2.5 KCl, 5 HEPES, 1.5 NaH2PO4, 1 MgCl2, 0.1 EDTA, in mM, pH 7.4). The oocytes were defolliculated by incubation in 25 mL OR2 containing 0.2% collagenase 1A (SIGMA) two times for about 60 minutes on a platform shaker and stored in Leibovitz's L-15 medium. Oocytes were injected the following day in 0.5× Leibovitz's L-15 medium containing […] gentamycin, 10 units/ml penicillin, and […] streptomycin.
Capped cRNAs from the linearized vectors containing human α1, β2 and γ2 subunits of the GABAA receptor genes were mixed in ratio of […]. Oocytes were injected with 25-50 nL of mixed RNA with an appx molar ratio for α1, β2, and γ2 as 1:1:10. Oocyte recordings were done 2-10 days after injection. The same methods apply to subtypes derived from α2β3γ2, α3β3γ2, and α5β3γ2, except for 1:1:1 ratio was used for α, β, and γ subunits.
All measurements were done in a medium containing ND-96 (96 NaCl, 2 KCl, 1.8 CaCl2.2H2O, 1 MgCl2.6H2O, 5 HEPES, in mM, pH 7.5). Two-electrode voltage-clamp recording was carried out using OpusXpress amplifier (Axon Instruments, Foster City, Calif.), which allows simultaneous recording from 8 oocytes. Oocytes were impaled with two electrodes of 1-2 MΩ tip resistance when filled with 3M KCl. Recordings were begun when membrane potential became stable at potentials negative to −50-−60 mV. Membrane potential was held at −60 mV. […] The concentration of GABA corresponded to the EC10 value calculated for each oocyte. The modulator pulses started 30 s before the GABA pulse so as to allow preincubation with the modulator. A set of 3 pulses with just GABA without modulator was given prior to the modulator-containing pulses to define the baseline GABA response. Two oocytes per each experiment were dedicated to observe the effect of diazepam on GABA response to ensure the presence of γ2 subunit in the GABAA pentameric complex, which imparts diazepam sensitivity to the complex.
Current amplitude (i) was measured from baseline to peak using Clampfit (Axon Inst., Foster City, Calif.). Potentiation was calculated as percent change from the baseline GABA current flux 100×(imod/icontrol)−1) where imod=current mediated by modulator+GABA and icontrol=current mediated by GABA alone. […] Similarly, a value of −50% potentiation means the presence of modulator caused a 50% decrease in the control current. Various other data shown here were fitted and plotted using GraphPad Prism (GraphPad Software, Inc. San Diego, Calif.). The percentage potentiation was converted to relative potentiation by dividing it with percentage potentiation value obtained from the same assay with diazepam as a control.

T1 sequence (P47869 29-451): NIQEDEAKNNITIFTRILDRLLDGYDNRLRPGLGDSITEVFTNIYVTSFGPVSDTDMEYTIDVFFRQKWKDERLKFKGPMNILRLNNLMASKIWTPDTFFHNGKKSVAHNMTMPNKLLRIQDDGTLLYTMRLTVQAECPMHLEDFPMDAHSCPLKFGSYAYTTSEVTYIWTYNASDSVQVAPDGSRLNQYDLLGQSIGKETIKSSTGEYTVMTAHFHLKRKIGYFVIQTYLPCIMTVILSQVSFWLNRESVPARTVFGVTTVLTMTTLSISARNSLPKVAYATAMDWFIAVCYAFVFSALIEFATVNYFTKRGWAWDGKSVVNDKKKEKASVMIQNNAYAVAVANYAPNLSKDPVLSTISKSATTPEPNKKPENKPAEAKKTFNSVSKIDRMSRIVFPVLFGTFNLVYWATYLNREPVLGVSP
T1 sequence (P28472 26-473 partner): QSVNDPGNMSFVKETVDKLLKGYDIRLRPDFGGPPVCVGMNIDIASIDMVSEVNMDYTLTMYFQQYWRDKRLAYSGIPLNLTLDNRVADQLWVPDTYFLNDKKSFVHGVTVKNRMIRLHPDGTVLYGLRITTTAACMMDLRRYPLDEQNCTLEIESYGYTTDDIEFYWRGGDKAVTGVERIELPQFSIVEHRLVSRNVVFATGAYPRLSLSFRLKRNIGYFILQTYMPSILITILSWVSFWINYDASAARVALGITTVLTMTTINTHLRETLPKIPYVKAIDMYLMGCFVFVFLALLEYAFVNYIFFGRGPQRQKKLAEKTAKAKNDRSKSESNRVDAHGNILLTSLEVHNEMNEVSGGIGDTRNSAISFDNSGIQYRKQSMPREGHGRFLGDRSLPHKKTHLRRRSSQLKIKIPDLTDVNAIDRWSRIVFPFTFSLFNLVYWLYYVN
T1 sequence (P18507 40-475): as the sequence (P18507 40-475) above

SMILES	Ki [1]	Relative Potentiation for GABAA1 [2]
COc1ccc(-c2cccc3c(N)c4c(nc23)CN(C2CC2)C4=O)c(C(F)(F)F)c1 [9-amino-2-cyclopropyl-5-(4-methoxy-2-(trifluoromethyl)phenyl)-2,3-dihydro-1H-pyrrolo[3,4-b]quinolin-1-one]	31.9 nM	0.5
CCN1Cc2nc3c(-c4cc(C)ccc4OC)cccc3c(N)c2C1=O [9-amino-2-ethyl-5-(2-methoxy-5-methylphenyl)-2,3-dihydro-1H-pyrrolo[3,4-b]quinolin-1-one]	25.6 nM	0.2
CCCN1Cc2nc3c(-c4ccc(OC)c(OC)c4OC)cccc3c(N)c2C1=O [9-amino-2-propyl-5-(2,3,4-trimethoxyphenyl)-2,3-dihydro-1H-pyrrolo[3,4-b]quinolin-1-one]	49.8 nM	0.55
CCCN1Cc2nc3c(-c4ccccc4C(F)(F)F)cccc3c(N)c2C1=O [9-amino-2-propyl-5-(2-(trifluoromethyl)phenyl)-2,3-dihydro-1H-pyrrolo[3,4-b]quinolin-1-one]	16.6 nM	0.48
CCCN1Cc2nc3c(-c4cc(OC)c(OC)c(OC)c4)cccc3c(N)c2C1=O [9-amino-2-propyl-5-(3,4,5-trimethoxyphenyl)-2,3-dihydro-1H-pyrrolo[3,4-b]quinolin-1-one]	89.8 nM	0.96
CCCN1Cc2nc3c(-c4ccc(C)cc4)cccc3c(N)c2C1=O [9-amino-2-propyl-5-(4-methylphenyl)-2,3-dihydro-1H-pyrrolo[3,4-b]quinolin-1-one]	80.7 nM	0.37
CCCN1Cc2nc3c(-c4ccncc4)cccc3c(N)c2C1=O [9-amino-2-propyl-5-(pyridin-4-yl)-2,3-dihydro-1H-pyrrolo[3,4-b]quinolin-1-one]	24.6 nM	0.43
CCCN1Cc2nc3c(-c4ccsc4)cccc3c(N)c2C1=O [9-amino-2-propyl-5-(thiophen-3-yl)-2,3-dihydro-1H-pyrrolo[3,4-b]quinolin-1-one]	30.8 nM	0.19
CCCN1Cc2nc3c(-c4ccc5[nH]ccc5c4)cccc3c(N)c2C1=O [9-amino-5-(1H-indol-5-yl)-2-propyl-2,3-dihydro-1H-pyrrolo[3,4-b]quinolin-1-one]	26.8 nM	0.55
CCCN1Cc2nc3c(-c4cccc(OC)c4OC)cccc3c(N)c2C1=O [9-amino-5-(2,3-dimethoxyphenyl)-2-propyl-2,3-dihydro-1H-pyrrolo[3,4-b]quinolin-1-one]	24.5 nM	0.3
COc1ccc(CN2Cc3nc4c(-c5ccc(OC)cc5OC)cccc4c(N)c3C2=O)cc1 [9-amino-5-(2,4-dimethoxyphenyl)-2-(4-methoxybenzyl)-2,3-dihydro-1H-pyrrolo[3,4-b]quinolin-1-one]	32.1 nM	0.25

Continued by falling Ki [1], values first:

Ki [1]	Relative Potentiation for GABAA1 [2]	SMILES
22.7 nM	0.48	Nc1c2c(nc3c(-c4ccccc4C(F)(F)F)cccc13)CN(C1CC1)C2=O [9-amino-2-cyclopropyl-5-(2-(trifluoromethyl)phenyl)-2,3-dihydro-1H-pyrrolo[3,4-b]quinolin-1-one]
21.3 nM	0.56	CCCCN1Cc2nc3c(-c4cc(C)ccc4OC)cccc3c(N)c2C1=O [9-amino-2-butyl-5-(2-methoxy-5-methylphenyl)-2,3-dihydro-1H-pyrrolo[3,4-b]quinolin-1-one]
19.7 nM	0.5	CCCCN1Cc2nc3c(-c4cccnc4OC)cccc3c(N)c2C1=O [9-amino-2-butyl-5-(2-methoxypyridin-3-yl)-2,3-dihydro-1H-pyrrolo[3,4-b]quinolin-1-one]
19.5 nM	0.29	CCCN1Cc2nc3c(-c4ccc5ncccc5c4)cccc3c(N)c2C1=O [9-amino-2-propyl-5-(quinolin-6-yl)-2,3-dihydro-1H-pyrrolo[3,4-b]quinolin-1-one]
14.9 nM	0.39	CCCN1Cc2nc3c(-c4ccc(F)cc4F)cccc3c(N)c2C1=O [9-amino-5-(2,4-difluorophenyl)-2-propyl-2,3-dihydro-1H-pyrrolo[3,4-b]quinolin-1-one]
13.9 nM	0.39	CCCN1Cc2nc3c(-c4ccc(OC)cc4OC)c(F)ccc3c(N)c2C1=O [9-amino-5-(2,4-dimethoxyphenyl)-6-fluoro-2-propyl-2,3-dihydro-1H-pyrrolo[3,4-b]quinolin-1-one]
8.1 nM	0.21	COc1ccncc1-c1cccc2c(N)c3c(nc12)CN(C1CC1)C3=O [9-amino-2-cyclopropyl-5-(4-methoxypyridin-3-yl)-2,3-dihydro-1H-pyrrolo[3,4-b]quinolin-1-one]
7.65 nM	0.23	COc1ccc(C)cc1-c1c(F)ccc2c(N)c3c(nc12)CN(C1CC1)C3=O [9-amino-2-cyclopropyl-6-fluoro-5-(2-methoxy-5-methylphenyl)-2,3-dihydro-1H-pyrrolo[3,4-b]quinolin-1-one]
5.53 nM	0.35	CCCN1Cc2nc3c(-c4ccccc4C)cccc3c(N)c2C1=O [9-amino-2-propyl-5-(2-methylphenyl)-2,3-dihydro-1H-pyrrolo[3,4-b]quinolin-1-one]
4.76 nM	0.28	COc1ccc(C)cc1-c1cccc2c(N)c3c(nc12)CN(C1CC1)C3=O [9-amino-2-cyclopropyl-5-(2-methoxy-5-methylphenyl)-2,3-dihydro-1H-pyrrolo[3,4-b]quinolin-1-one]
4.62 nM	0.25	CCCCN1Cc2nc3c(-c4c(F)cccc4OC)cccc3c(N)c2C1=O [9-amino-2-butyl-5-(2-fluoro-6-methoxyphenyl)-2,3-dihydro-1H-pyrrolo[3,4-b]quinolin-1-one]
4.07 nM	0.19	COc1ccc(C)cc1-c1cccc2c(N)c3c(nc12)CN(C1CCC1)C3=O [9-amino-2-cyclobutyl-5-(2-methoxy-5-methylphenyl)-2,3-dihydro-1H-pyrrolo[3,4-b]quinolin-1-one]
3.15 nM	0.16	Nc1c2c(nc3c(-c4cc(Cl)ccc4Cl)cccc13)CN(C1CCC1)C2=O [9-amino-2-cyclobutyl-5-(2,5-dichlorophenyl)-2,3-dihydro-1H-pyrrolo[3,4-b]quinolin-1-one]
2.19 nM	0.28	COc1ccncc1-c1cccc2c(N)c3c(nc12)CN(Cc1ccc2c(c1)OCO2)C3=O [9-amino-2-(benzo[d][1,3]dioxol-5-ylmethyl)-5-(4-methoxypyridin-3-yl)-2,3-dihydro-1H-pyrrolo[3,4-b]quinolin-1-one]
